Results reported in patent US12144850B2, “Methods and compositions for car T cell therapy” (PURDUE RESEARCH FOUNDATION, priority 2016, dated 2024).

Legend:
HEK(NK1R+) = assay: Two tumors on separate flanks of the same mouse, HEK tumor; type: in vivo, mice
From the text: (§1) In order to study whether same anti-FITC CAR T cell can eradicate mixture of heterogeneous cancer cells with cocktail of FITC-ligands, immunodeficient NSG mice (Jackson laboratory) were utilized for the in vivo study. Two different cancer cell lines (e.g. MDA-MB-231(FR+) and HEK(NK1R+)) were implanted into separate flanks on the same mouse. Then, anti-FITC CAR T cell (10^7 cells) was introduced by intravenous injection when tumor volumes reached about 50-100 mm^3. In addition, either a mixture of FITC-ligands (i.e. FITC-PEG12-Folate (500 nmole/kg) and FITC-PEG11-NK1R (500 nmole/kg)), single FITC-PEG11-NK-1R (500 nmole/kg) or PBS was introduced every other day by intravenous injection. The anti-tumor efficacy of CAR T cell with FITC-ligands was analyzed by measuring tumor volume at every other day.

HEK293 (NK1R+) cells [1] = assay: Cytotoxicity assay of CAR T cells in vitro (LDH release), HEK293; type: cell-based; conditions: HEK293 (NK1R+) model, E:T 10:1, 100 nM conjugate; FIG. 3C
Procedure: (§2) In order to test cytotoxicity of CAR T cells with desired FITC-ligands, a standard lactate dehydrogenase (LDH) release assay was performed using a Pierce™ LDH cytotoxicity assay kit from ThermoFisher Scientific. To prepare samples for the LDH assay, cancer cells were seeded at a density of 10^4 cells/100 μL of media in each well of a 96 well plate and grown overnight. CAR T cells were prepared the next day at various numbers to have different effector (CAR T cell):target cell (cancer cell) ratios (e.g. E:T=20:1, 10:1, 5:1 and 1:1). FITC-ligands at various concentrations were introduced into each well and co-cultured for 6-24 hours. After co-incubation, the plate containing CAR T cells and cancer cells was centrifuged at 350×g at room temperature for 10 min to remove cell debris or remaining cells. 50 μL of the supernatants of each sample were then transferred into a new 96 well plate. 50 μL of the prepared LDH reaction mixture was added to the transferred 50 μL of each sample and incubated at room temperature for 30 min. 50 μL of stop solution was added and the absorbance of each sample was measured at 490 nm and 680 nm. The percent of cytotoxicity was calculated for each sample by using the equation below: % Cytotoxicity=(Experimental value−effector cells spontaneous−target cells spontaneous)/(Target cell maximum control−target cell spontaneous control)×100

HEK293 (NK1R+) cells [2] = assay: Anti-tumor efficacy of CAR T cells in vivo, HEK293 (NK1R+) xenograft; set-up: species or system mice
Procedure: (§3) Immunodeficient NSG mice (Jackson Laboratory) were used to identify the efficacy of CAR T cell anti-tumor activity in vivo. Each tumor-specific antigen expressing cancer cell line was subcutaneously injected into the shoulder of NSG mice to establish solid tumor xenografts. When tumor volume of around 50-100 mm^3 was reached, CAR T cells were introduced into mice bearing tumors and desired FITC-ligands were also introduced (i.v.) every other day. Control mice were administered PBS instead of FITC-ligands. Tumor volume and cytokine levels in the blood (IL2, IL6, IL10, IFNγ, and TNFα) were measured. General toxicity of the therapy was monitored by measuring weight loss. At the end of each treatment, mouse blood was collected to test for anemia, number of white blood cells and CAR T cell proliferation. Mouse organs were also evaluated.

MDA-MB-231(FR+) = assay: Two tumors on separate flanks of the same mouse, MDA-MB-231 tumor; type: in vivo, mice
From the text: as §1

MDA-MB-231 (FR+) cells = assay: Anti-tumor efficacy of CAR T cells in vivo, MDA-MB-231 (FR+) xenograft; set-up: species or system mice; conditions: during treatment, FIG. 7B
Procedure: as §3

KB (FR+) cells = assay: Cytotoxicity assay of CAR T cells in vitro (LDH release), KB; type: cell-based; conditions: KB (FR+) model, 100 nM conjugate; FIG. 3D
Procedure: as §2

LNCaP (PSMA+) cells = assay: Cytotoxicity assay of CAR T cells in vitro (LDH release), LNCaP; type: cell-based; conditions: LNCaP (PSMA+) model, E:T 10:1, 100 nM conjugate; FIG. 3B
Procedure: as §2

[3] = anti-FITC CAR T cell (10^7 cells) + both FITC-PEG11-NK1R and FITC-PEG12-Folate, 500 nmole/kg each, i.v. every other day, FIG. 19C
[4] = anti-FITC CAR T cell (10^7 cells) + only FITC-PEG11-NK1R 500 nmole/kg i.v. every other day, FIG. 19B

Question: For `O=C(CN1CCC[C@H](OCc2cc(C(F)(F)F)cc(C(F)(F)F)c2)[C@@H]1c1ccccc1)NCCOCCOCCOCCOCCOCCOCCOCCOCCOCCOCCOCCNC(=S)Nc1ccc(-c2c3ccc(=O)cc-3oc3cc(O)ccc23)c(C(=O)O)c1` [FITC-PEG11-NK1], which “HEK (NK1R) tumor volume” value (HEK(NK1R+); [3]) is on record?
Answer: eliminated

Question: What about the “HEK (NK1R) tumor volume” value (HEK(NK1R+); [4]) of the same compound?
Answer: eradicated

Question: What about the “cytotoxicity of CAR T cells (activation)” value (HEK293 (NK1R+) cells [1]) of the same compound?
Answer: greater than activation using FITC-Folate or in the absence of a conjugate

Question: And the “blood indices (cytokine storm)” value (HEK293 (NK1R+) cells [2]; HEK-NK1R model, 500 nmoles/kg, FIG. 9)?
Answer: a cytokine storm had not occurred

Question: What about the tumor size (HEK293 (NK1R+) cells [2]; NSG mice, CAR T cells + conjugate 500 nmol/kg i.v. every other day, FIG. 5A) of the same compound?
Answer: decreased

Question: And the body weight (HEK293 (NK1R+) cells [2]; NSG mice, CAR T cells + conjugate, FIG. 5B)?
Answer: unchanged relative to the control mouse

Question: And the “harvested organs, indications of cytokine release syndrome” value (HEK293 (NK1R+) cells [2]; after two weeks of therapy, versus control group, FIGS. 6A-B)?
Answer: appeared normal in size with no indications of cytokine release syndrome

Question: And the “percentage of CAR T cells in human T cells” value (HEK293 (NK1R+) cells [2]; post CAR T cell injection along with conjugate, FIG. 5C)?
Answer: increased

Question: And the MDA-MB-231 tumor volume (MDA-MB-231(FR+); [3])?
Answer: eliminated

Question: What about the MDA-MB-231 tumor volume (MDA-MB-231(FR+); [4]) of the same compound?
Answer: continued growing

Question: And the body weight (MDA-MB-231 (FR+) cells)?
Answer: unchanged during treatment

Question: What does the source list for `O=C(O)CC[C@H](NC(=O)N[C@@H](CCC(=O)NCCCCCCCC(=O)N[C@@H](Cc1ccccc1)C(=O)N[C@@H](Cc1ccccc1)C(=O)NCCNC(=S)Nc1ccc(-c2c3ccc(=O)cc-3oc3cc(O)ccc23)c(C(=O)O)c1)C(=O)O)C(=O)O` [FITC-DUPA]?
Answer: CAR T cell cytotoxicity to tumor cells as a function of E:T ratio (KB (FR+) cells): a function of the E:T ratio; cytotoxicity of CAR T cells (activation) (LNCaP (PSMA+) cells): greater activation than using FITC-Folate or in the absence of a conjugate
